Common to all, as to assay type: physicochemical
A short description of data set [1]: Evaluation of chemical stability (dry heat, wet heat, light irradiation; HPLC residue). Particulars: for Residue (%, mean ± SD) Light irradiation (Lx · hr) 60 × 10^4: light irradiation 60 × 10^4 Lx · hr; for Residue (%, mean ± SD) Light irradiation (Lx · hr) 120 × 10^4: light irradiation 120 × 10^4 Lx · hr; for Residue (%, mean ± SD) 50° C., 0% RH 1 week later / Residue (%, mean ± SD) 50° C., 0% RH 2 week later: dry heat 50° C.; for Residue (%, mean ± SD) 50° C., 0% RH 2 week later / Residue (%, mean ± SD) 40° C., 75% RH 2 week later: 2 weeks; for Residue (%, mean ± SD) 40° C., 75% RH 1 week later / Residue (%, mean ± SD) 40° C., 75% RH 2 week later: wet heat 40° C. On the procedure: Approximately 2 mg of each of various samples prepared in Example 1 was weighed into an aluminum pan for thermal analysis and stored under dry heat (50° C., 0% RH) or wet heat (40° C., 75% RH) conditions. 1 week or 2 weeks later, each sample was collected, and the weight change was measured. Then, the whole amount was dissolved in 20 mL of eluent and analyzed by HPLC. For photolysis samples, approximately 10 mg of each sample was weighed into a weighing bottle and stored at 25° C. in a light irradiator. After irradiation at 600,000 or 1,200,000 Lx/hr, the sample was collected, and the weight change was measured. Then, the whole amount was dissolved in 100 mL of eluent and analyzed by HPLC. The residue proportion was determined from the ratio between the concentration of the sample solution calculated from a calibration curve prepared before measurement and the theoretical concentration calculated from weight measurement.
Measurement conditions of HPLC (column: Waters Symmetry C18 4.6 mm×150 mm, eluent: 0.05 M phosphate buffer (pH 5.0): acetonitrile=80:20, flow rate: 1 mL/min., detection: UV 220 nm, column temperature: 40° C.)

A short description of data set [2]: Evaluation of crystal stability (storage at 25° C. at adjusted relative humidity). Particulars: for 0% RH Weight change (%) / 52% RH Weight change (%) / 93% RH Weight change (%): 25° C., 3-day storage. On the procedure: Approximately 50 mg of each of various samples prepared in Example 1 was placed in a weighing bottle and stored at 25° C. in a desiccator whose relative humidity was adjusted to 0%, 52%, or 93% by a saturated salt solution method (silica gel, Mg(NO3)2, KNO3). […]

Data set [3] can be described thus: Evaluation of solubility (37° C., 30 min, HPLC). The conditions noted are these: thermodynamic from solid. On the procedure: A supersaturated amount of each sample was placed in a 12-mL test tube, and 3 mL of a test solution (water, Japanese Pharmacopoeia disintegration test solution No. 1 (JP1), and Japanese Pharmacopoeia disintegration test solution No. 2 (JP2)) was added thereto. The test tube was incubated in a constant-temperature water bath at 37° C. The test tube was shaken using a vortex mixer for 30 seconds every 5 minutes. 30 minutes later, the supernatant was filtered through a membrane filter (pore size: 0.45 μm), appropriately diluted with eluent, and then analyzed by HPLC under the following conditions. The concentration was calculated from a calibration curve prepared before measurement.
Measurement conditions of HPLC (column: Waters Symmetry C18 4.6 mm×150 mm, eluent: 0.05 M phosphate buffer (pH 5.0): acetonitrile=70:30, flow rate: 1 mL/min., detection: UV 220 nm, column temperature: 40° C.)

Data set [4] in a line: Moisture absorption and desorption characteristics (microbalance, water vapor adsorption apparatus). Particulars: 25° C., 10-90% RH. On the procedure:
Various samples prepared in Example 1 were separately placed in quartz holders and measured for their moisture absorption and desorption behavior under the following conditions using a microbalance.
Moisture absorption and desorption behavior measurement conditions (sample volume: approximately 20 mg, measurement range: 10-90% RH, measurement temperature: 25° C., variable: within 0.03%, varying length of time: 10 min., apparatus: VTI atmospheric pressure-type automatic water vapor adsorption apparatus SGA-100)

In brackets after ≈: the same amount, converted by molar mass. Where two headings read alike, the source gives them in different places.

We go through two molecules from patent US8394821B2, “Activated blood coagulation factor inhibitor” (Daiichi Sankyo Company, Limited, priority 2009, dated 2013).

As for `CN1CCc2nc(C(=O)N[C@@H]3C[C@@H](C(=O)N(C)C)CC[C@@H]3NC(=O)C(=O)Nc3ccc(Cl)cn3)sc2C1` [Compound A, N^1-(5-chloropyridin-2-yl)-N^2-((1S,2R,4S)-4-[(dimethylamino)carbonyl]-2-{[(5-methyl-4,5,6,7-tetrahydrothiazolo[5,4-c]pyridin-2-yl)carbonyl]amino}cyclohexyl)ethanediamide], the “Light irradiation Color” value in data set [1] (25° C., after light irradiation) is on record as “Changed”. In data set [1] (25° C.), the “Residue (%, mean ± SD) Light irradiation (Lx · hr) 60 × 10^4” value is given as 92.0 ± 0.3% and the “Residue (%, mean ± SD) Light irradiation (Lx · hr) 120 × 10^4” value stood at 82.8 ± 0.4%. For the same molecule, in data set [1], the “Residue (%, mean ± SD) 50° C., 0% RH 1 week later” value is 99.3 ± 0.4%; the “Residue (%, mean ± SD) 50° C., 0% RH 2 week later” value was found to be 97.5 ± 0.7%; the “Residue (%, mean ± SD) 40° C., 75% RH 1 week later” value came out at 99.8 ± 0.3%; the “Residue (%, mean ± SD) 40° C., 75% RH 2 week later” value was found to be 98.7 ± 1.3%. For the same molecule, in data set [2], the “0% RH Weight change (%)” value was −0.32%, the “52% RH Weight change (%)” value is −0.22% and the “93% RH Weight change (%)” value is −0.04%. In addition, the solubility at 30 min in data set [3] (pH 1.2, simulated gastric fluid, Japanese Pharmacopoeia disintegration test solution No. 1, 37° C., read-out: JP1 (Solubility (μg/mL))) is greater than 2000 µg/mL. Moreover, the solubility at 30 min in data set [3] (pH 6.8, aqueous buffer, Japanese Pharmacopoeia disintegration test solution No. 2, 37° C., read-out: JP2 (Solubility (μg/mL))) was found to be 49.8 µg/mL (≈ 90.9 µM). For the same molecule, in data set [3] (water, 37° C., read-out: Water (Solubility (μg/mL))), the solubility at 30 min was 47.5 µg/mL (≈ 86.7 µM).

For the molecule `CN1CCc2nc(C(=O)N[C@@H]3C[C@@H](C(=O)N(C)C)CC[C@@H]3NC(=O)C(=O)Nc3ccc(Cl)cn3)sc2C1.O.O=C(O)C(O)C(O)C(=O)O` [compound II, N^1-(5-chloropyridin-2-yl)-N^2-((1S,2R,4S)-4-[(dimethylamino)carbonyl]-2-{[(5-methyl-4,5,6,7-tetrahydrothiazolo[5,4-c]pyridin-2-yl)carbonyl]amino}cyclohexyl)ethanediamide(+)-tartrate monohydrate], in data set [1] (25° C.), the “Residue (%, mean ± SD) Light irradiation (Lx · hr) 60 × 10^4” value is reported as 98.2 ± 0.9% and the “Residue (%, mean ± SD) Light irradiation (Lx · hr) 120 × 10^4” value turned out to be 95.0 ± 1.2%. Also, in data set [1], the “Residue (%, mean ± SD) 50° C., 0% RH 1 week later” value is reported as 100.4 ± 0.7%; the “Residue (%, mean ± SD) 50° C., 0% RH 2 week later” value is recorded as 100.1 ± 0.7%; the “Residue (%, mean ± SD) 40° C., 75% RH 1 week later” value is 100.1 ± 0.7%; the “Residue (%, mean ± SD) 40° C., 75% RH 2 week later” value was 100.1 ± 0.3%. In data set [2], the “0% RH Weight change (%)” value is −0.35%, the “52% RH Weight change (%)” value worked out at 0.05% and the “93% RH Weight change (%)” value is on record as 0.31%. Besides, the “stability on storage: weight and crystal form (in words)” value in data set [2] (stored for 3 days under three standard relative humidity conditions at 25° C.) is “stable without change both in weight and in crystal form”. For the same molecule, the “moisture absorption and desorption characteristics/behavior (in words)” value in data set [4] was “favorable moisture absorption and desorption characteristics”.
